Data reported in patent US20260053811A1, “METHODS OF TREATING HYPERTENSION IN OBESE SUBJECTS” (Mineralys Therapeutics, Inc., priority 2022, published 2026).

Test system: hypertensive subjects
Experiment: Seated automated office blood pressure (AOBP) in randomized, placebo-controlled, dose-ranging study
Format: in vivo, human
Details: Part 1
Procedure: A randomized, double-blinded, placebo-controlled, dose-ranging, multicenter study was conducted to evaluate the effect of orally administered Compound A HBr on blood pressure for the treatment of hypertension in male and female subjects ≥18 years of age.
The study consists of two parts. For enrollment into Part 1 of the study, a subject's value of plasma renin activity (PRA) must be ≤1 ng/mL/h based on morning measurement. If the value of PRA >1 ng/mL/h based on morning measurement, then subjects may be eligible to enter Part 2 of the study.
For Part 1, 163 enrolled subjects ≥18 years of age were randomized into 6 equal treatment groups (1:1:1:1:1:1) to 12.5 mg BID, 25 mg BID, 12.5 mg QD, 50 mg QD, 100 mg QD, or placebo. After a review of interim clinical data, the 2 lowest dose levels (12.5 mg QD and 12.5 mg BID) were stopped for future randomization due to a lack of consistent meaningful reduction of blood pressure, but the patients randomized to that point remained in the study through completion. Thus, after the review of interim clinical data, subjects were randomized into 4 equal treatment groups (1:1:1:1) to 25 mg BID, 50 mg QD, 100 mg QD, or placebo.
For Part 2, 36 enrolled subjects ≥18 years of age were randomized (5:1) to either 100 mg QD Compound A HBr or placebo such that the Compound A HBr treatment group consisted of approximately 30 subjects and the placebo treatment group will consist of approximately 6 subjects.
Subjects orally administered the assigned study drug (Compound A HBr or placebo) according to the assigned dosing regimen for 8 weeks beginning on Study Day 1. All subjects in Part 1 (regardless of dosing group) received BID dosing to preserve the integrity of the blind; active drug is administered as the morning dose for all QD dose groups. Subjects returned to the research facility or were seen by the clinical investigator or approved home health care professional at the end of Study Weeks 1, 2, 3, 4, 5, 6, 7, and 8 (±2 days) for protocol-defined efficacy and safety assessments and procedures, assessment of adverse events (AEs), and confirmation of compliance with study drug usage. Subjects also completed a telephone visit and blood pressure (BP) check at home approximately 3 days post last dose of study drug. Subjects attended up to 14 full clinic visits, including a pre-Screening visit, a Screening/start of Placebo Run-in visit, a second visit during Placebo Run-in, a clinic visit to initiate the ABPM procedure, a Randomization visit, 8 weekly visits during double-blind treatment, and an end-of-study visit scheduled 4 weeks after the last study treatment for final efficacy and safety assessments.
An automated oscillometric sphygmomanometer device was used to measure the subjects' systolic and diastolic blood pressure in office after approximately 5 minutes of rest in the seated position.
The primary endpoint is the change in office-measured (mean of last 2 of 5 unattended measurements using an automated oscillometric sphygmomanometer device after approximately 5 minutes of rest in the seated position) systolic blood pressure (SBP) from baseline to the end of Study Week 8.
Secondary endpoints of this study were: • (a) Change in 24-hour ambulatory blood pressure monitoring (ABPM) parameters (systolic and diastolic) from baseline to the end of Study Week 7. • (b) Change in office-measured SBP from baseline to the end of Study Weeks 1, 2, 3, 4, 5, 6, and 7. • (c) Change in office-measured diastolic blood pressure (DBP) from baseline to the end of Study Weeks 1, 2, 3, 4, 5, 6, 7, and 8. • (d) Proportion of subjects who achieve office-measured BP of ≤130/80 mm Hg by the end of Study Week 8.

[1] = 12.5 mg BID, Seated SBP Tertile High
[2] = 12.5 mg BID, Seated SBP Tertile Middle
[3] = 12.5 mg BID, Systolic Blood Pressure Tertile at Baseline High
[4] = 12.5 mg BID, Systolic Blood Pressure Tertile at Baseline Low
[5] = 12.5 mg BID, Systolic Blood Pressure Tertile at Baseline Middle
[6] = 12.5 mg BID, Thiazide Diuretic Use at Baseline No
[7] = 12.5 mg BID, Thiazide Diuretic Use at Baseline Yes

**Q.** Which “Mean (SD) Change from Baseline at Week 8 in Automated Office-Measured Diastolic Blood Pressure” value (12.5 mg BID, Race Black or AA) does the source give for `CC(=O)N[C@H]1CC[C@H](NC(=O)CN2CCN(c3nncc(-c4ccc(C)cc4)n3)CC2)CC1` [Compound A HBr] here?
**A.** 0.21 (7.03) mmHg

**Q.** What about the “Mean (SD) Change from Baseline at Week 8 in Automated Office-Measured Systolic Blood Pressure” value (12.5 mg BID, Race Black or AA) of the same compound?
**A.** −7.43 (20.17) mmHg

**Q.** And the “Mean (SD) Automated Office-Measured Diastolic Blood Pressure at Wk 8” value (12.5 mg BID, Race Other)?
**A.** 72.92 (10.54) mmHg

**Q.** What about the “Mean (SD) Automated Office-Measured Systolic Blood Pressure at Wk 8” value (12.5 mg BID, Race Other) of the same compound?
**A.** 128.50 (11.84) mmHg

**Q.** What about the “Mean (SD) Change from Baseline at Week 8 in Automated Office-Measured Diastolic Blood Pressure” value (12.5 mg BID, Race Other) of the same compound?
**A.** −9.38 (7.89) mmHg

**Q.** What about the “Mean (SD) Change from Baseline at Week 8 in Automated Office-Measured Systolic Blood Pressure” value (12.5 mg BID, Race Other) of the same compound?
**A.** −17.50 (15.80) mmHg

**Q.** What about the “Mean (SD) Automated Office-Measured Diastolic Blood Pressure at Wk 8” value [1] of the same compound?
**A.** 74.86 (11.87) mmHg

**Q.** What about the “Mean (SD) Change from Baseline at Week 8 in Automated Office-Measured Diastolic Blood Pressure” value [1] of the same compound?
**A.** −6.93 (7.79) mmHg

**Q.** And the “Mean (SD) Automated Office-Measured Diastolic Blood Pressure at Wk 8” value (12.5 mg BID, Seated SBP Tertile Low)?
**A.** 78.50 (9.88) mmHg

**Q.** And the “Mean (SD) Automated Office-Measured Diastolic Blood Pressure at Wk 8” value [2]?
**A.** 73.88 (9.48) mmHg

**Q.** And the “Mean (SD) Change from Baseline at Week 8 in Automated Office-Measured Diastolic Blood Pressure” value [2]?
**A.** −6.69 (10.60) mmHg

**Q.** And the “Mean (SD) Automated Office-Measured Diastolic Blood Pressure at Wk 8” value (12.5 mg BID, Sex Female)?
**A.** 74.07 (10.32) mmHg

**Q.** And the “Mean (SD) Automated Office-Measured Systolic Blood Pressure at Wk 8” value (12.5 mg BID, Sex Female)?
**A.** 131.00 (14.17) mmHg

**Q.** What about the “Mean (SD) Change from Baseline at Week 8 in Automated Office-Measured Diastolic Blood Pressure” value (12.5 mg BID, Sex Female) of the same compound?
**A.** −5.25 (9.78) mmHg

**Q.** What about the “Mean (SD) Change from Baseline at Week 8 in Automated Office-Measured Systolic Blood Pressure” value (12.5 mg BID, Sex Female) of the same compound?
**A.** −12.46 (18.69) mmHg

**Q.** And the “Mean (SD) Automated Office-Measured Systolic Blood Pressure at Wk 8” value [3]?
**A.** 131.86 (14.81) mmHg

**Q.** What about the “Mean (SD) Change from Baseline at Week 8 in Automated Office-Measured Systolic Blood Pressure” value [3] of the same compound?
**A.** −24.93 (18.46) mmHg

**Q.** What about the “Mean (SD) Automated Office-Measured Systolic Blood Pressure at Wk 8” value [4] of the same compound?
**A.** 132.25 (10.34) mmHg

**Q.** What about the “Mean (SD) Change from Baseline at Week 8 in Automated Office-Measured Systolic Blood Pressure” value [4] of the same compound?
**A.** −0.75 (5.48) mmHg

**Q.** What about the “Mean (SD) Automated Office-Measured Systolic Blood Pressure at Wk 8” value [5] of the same compound?
**A.** 131.75 (14.00) mmHg

**Q.** And the “Mean (SD) Change from Baseline at Week 8 in Automated Office-Measured Systolic Blood Pressure” value [5]?
**A.** −10.56 (16.34) mmHg

**Q.** And the “Automated Office-Measured Diastolic Blood Pressure, Week 8, Mean (SD)” value [6]?
**A.** 79.57 (10.75) mmHg

**Q.** And the “Mean (SD) Automated Office-Measured Systolic Blood Pressure at Wk 8” value [6]?
**A.** 139.29 (13.28) mmHg

**Q.** And the “Mean (SD) Change from Baseline at Week 8 in Automated Office-Measured Diastolic Blood Pressure” value [6]?
**A.** −3.29 (8.80) mmHg

**Q.** What about the “Mean (SD) Change from Baseline at Week 8 in Automated Office-Measured Systolic Blood Pressure” value [6] of the same compound?
**A.** −4.43 (15.93) mmHg

**Q.** And the “Automated Office-Measured Diastolic Blood Pressure, Week 8, Mean (SD)” value [7]?
**A.** 72.67 (9.15) mmHg

**Q.** What about the “Mean (SD) Automated Office-Measured Systolic Blood Pressure at Wk 8” value [7] of the same compound?
**A.** 127.58 (11.07) mmHg

**Q.** And the “Mean (SD) Change from Baseline at Week 8 in Automated Office-Measured Diastolic Blood Pressure” value [7]?
**A.** −7.33 (8.79) mmHg

**Q.** And the “Mean (SD) Change from Baseline at Week 8 in Automated Office-Measured Systolic Blood Pressure” value [7]?
**A.** −19.25 (16.90) mmHg

**Q.** And the “Mean (SD) Automated Office-Measured Systolic Blood Pressure at Wk 8” value (12.5 mg QD, ACEi/ARB No)?
**A.** 138.25 (20.45) mmHg

**Q.** What about the “Mean (SD) Change from Baseline at Week 8 in Automated Office-Measured Systolic Blood Pressure” value (12.5 mg QD, ACEi/ARB No) of the same compound?
**A.** −8.50 (31.61) mmHg

**Q.** What about the “Mean (SD) Automated Office-Measured Systolic Blood Pressure at Wk 8” value (12.5 mg QD, ACEi/ARB Yes) of the same compound?
**A.** 141.50 (23.12) mmHg

**Q.** And the “Mean (SD) Change from Baseline at Week 8 in Automated Office-Measured Systolic Blood Pressure” value (12.5 mg QD, ACEi/ARB Yes)?
**A.** −6.39 (16.84) mmHg

**Q.** What about the “Mean (SD) Automated Office-Measured Diastolic Blood Pressure at Wk 8” value (12.5 mg QD, ACEi/ARBs No) of the same compound?
**A.** 73.25 (13.50) mmHg

**Q.** What about the “Mean (SD) Change from Baseline at Week 8 in Automated Office-Measured Diastolic Blood Pressure” value (12.5 mg QD, ACEi/ARBs No) of the same compound?
**A.** −5.50 (11.85) mmHg

**Q.** What about the “Mean (SD) Automated Office-Measured Diastolic Blood Pressure at Wk 8” value (12.5 mg QD, ACEi/ARBs Yes) of the same compound?
**A.** 83.79 (17.89) mmHg

**Q.** What about the “Mean (SD) Change from Baseline at Week 8 in Automated Office-Measured Diastolic Blood Pressure” value (12.5 mg QD, ACEi/ARBs Yes) of the same compound?
**A.** −0.71 (13.94) mmHg

**Q.** And the “Mean (SD) Automated Office-Measured Diastolic Blood Pressure at Wk 8” value (12.5 mg QD, AHTs 2)?
**A.** 80.80 (18.35) mmHg

**Q.** And the “Mean (SD) Automated Office-Measured Systolic Blood Pressure at Wk 8” value (12.5 mg QD, AHTs 2)?
**A.** 142.80 (25.41) mmHg

**Q.** And the “Mean (SD) Change from Baseline at Week 8 in Automated Office-Measured Diastolic Blood Pressure” value (12.5 mg QD, AHTs 2)?
**A.** −4.60 (10.04) mmHg

**Q.** What about the “Mean (SD) Change from Baseline at Week 8 in Automated Office-Measured Systolic Blood Pressure” value (12.5 mg QD, AHTs 2) of the same compound?
**A.** −9.70 (21.49) mmHg

**Q.** And the “Mean (SD) Automated Office-Measured Diastolic Blood Pressure at Wk 8” value (12.5 mg QD, AHTs ≥3)?
**A.** 82.25 (16.96) mmHg

**Q.** What about the “Mean (SD) Automated Office-Measured Systolic Blood Pressure at Wk 8” value (12.5 mg QD, AHTs ≥3) of the same compound?
**A.** 138.25 (18.26) mmHg

**Q.** And the “Mean (SD) Change from Baseline at Week 8 in Automated Office-Measured Diastolic Blood Pressure” value (12.5 mg QD, AHTs ≥3)?
**A.** 1.75 (16.61) mmHg

**Q.** What about the “Mean (SD) Change from Baseline at Week 8 in Automated Office-Measured Systolic Blood Pressure” value (12.5 mg QD, AHTs ≥3) of the same compound?
**A.** −3.31 (18.37) mmHg

**Q.** What about the “Mean (SD) Automated Office-Measured Diastolic Blood Pressure at Wk 8” value (12.5 mg QD, Age 65-79 yr) of the same compound?
**A.** 77.25 (5.52) mmHg
